PubChem BioAssay (NCI)
“And” between values parts separate entries of the source, which are not always exact repeats. Equal entries are not always repeated.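 Briefly, cells in 96-well plates were exposed to five compound concentrations for 48 h, and endpoints were estimated by linear interpolation. Abbreviation: GI50, concentration required for 50% inhibition of growth. At the TGI there is no net growth.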

Key:
Experiment in all cases: NCI tumour cell line growth inhibition, 48 h
EKVX NSCLC = tested on: EKVX NSCLC
T-47D breast = tested on: T-47D breast
MALME-3M melanoma = tested on: MALME-3M melanoma
CAKI-1 renal = tested on: CAKI-1 renal
A498 renal = tested on: A498 renal
HCT-15 colon = tested on: HCT-15 colon
M14 melanoma = tested on: M14 melanoma
HS 578T breast = tested on: HS 578T breast
TK-10 renal = tested on: TK-10 renal
NCI-H522 lung = tested on: NCI-H522 lung

SMILES	TGI (EKVX NSCLC) [µM]	TGI (T-47D breast)	TGI (MALME-3M melanoma)	TGI (CAKI-1 renal) [µM]	TGI (A498 renal)	TGI (HCT-15 colon) [µM]	TGI (M14 melanoma)	TGI (HS 578T breast)	TGI (TK-10 renal)	TGI (NCI-H522 lung)	GI50 (EKVX NSCLC)	GI50 (T-47D breast)	GI50 (MALME-3M melanoma)	GI50 (CAKI-1 renal)	GI50 (A498 renal)	GI50 (HCT-15 colon)	GI50 (HS 578T breast)	GI50 (TK-10 renal)	GI50 (NCI-H522 lung)	GI50 (M14 melanoma)
CN1C(=O)C(CC(=O)O)NC1=S (configuration not stated)	> 100	> 100 µM	> 100 µM	> 100	> 100 µM	> 100	> 100 µM	> 100 µM	> 100 µM	> 100 µM										
Cc1ccc2nc(-c3ccccc3)c(N=O)n2c1	79.5	> 100 µM	> 100 µM	> 100	> 100 µM	> 100	> 100 µM	> 100 µM	> 100 µM	> 100 µM										
O=C(O)c1cc(-c2ccncc2)nc2ccccc12	> 100	> 100 µM	> 100 µM	> 100	> 100 µM	> 100	> 100 µM	> 100 µM	> 100 µM	> 100 µM										
CC[C@@]1(OC(=O)CN)C(=O)OCc2c1cc1n(c2=O)Cc2cc3c(N)cccc3nc2-1	> 100	> 100 µM	1.75 µM	0.582	0.156 µM	> 100		> 100 µM	> 21.6 µM	1.31 µM	0.265 µM	< 0.01 µM	0.0473 µM	< 0.01 µM	< 0.016 µM	0.249 µM	> 100 µM	1.31 µM	< 0.01 µM	
CC1(O)CC(c2nc(-c3ccc4ccc(-c5ccccc5)nc4c3)c3c(N)nccn23)C1 (configuration not stated)	> 100	24.1 µM and > 10 µM	38.2 µM and > 10 µM	> 100	12.8 µM and > 10 µM	> 79.6	31.1 µM and > 10 µM	51.9 µM and > 10 µM	56.3 µM and > 10 µM	35.5 µM and > 10 µM	11.7 µM and > 10 µM	3.94 µM and 2.82 µM	7.95 µM and > 10 µM	4.58 µM and 2.16 µM	3.32 µM and 4.55 µM	4.52 µM and 3.68 µM	13.8 µM and 4.28 µM	12 µM and > 10 µM	12 µM and > 10 µM	11.5 µM and > 10 µM
Nc1nc(N)c2c(n1)NC(c1ccc(F)cc1)C1CCc3ccccc3C1=N2 (configuration not stated)	14.6	17.7 µM	15 µM	16.2	9.08 µM	16.5	18.7 µM	34.6 µM	16.9 µM	21.2 µM	2.83 µM	3.86 µM	2.52 µM	2.72 µM	2.87 µM	3.99 µM	10.2 µM	3.63 µM	5.66 µM	5.51 µM
COC(=O)CCC1CCC(c2cc(F)ccc2F)(S(=O)(=O)c2ccc(Cl)cc2)CC1 (configuration not stated)	> 100	> 100 µM	> 100 µM	> 100	> 100 µM	> 100	> 100 µM	> 100 µM	> 100 µM	> 100 µM	61.2 µM	39.3 µM	67.1 µM	6 µM	40.4 µM	> 100 µM	> 100 µM	> 100 µM	62.4 µM	55.4 µM
CCN1C(=O)N(c2ccccc2)C2NC(=S)N(/N=C/C=C/c3ccccc3)C21 (configuration not stated)	> 100	> 100 µM	> 100 µM	> 100	0.699 µM	> 100	> 100 µM	> 100 µM	> 100 µM	6.6 µM	0.619 µM	0.405 µM	2.83 µM	0.269 µM	0.105 µM	0.293 µM	0.339 µM	0.825 µM	0.133 µM	0.239 µM
CNCCNc1c2c(c(NCCNC)c3[nH]ccc13)C(=O)c1ccccc1C2=O	4.13	> 27 µM	1.32 µM	1.15	4.27 µM	0.761	1.35 µM	1.65 µM	0.502 µM	0.339 µM	1.33 µM	11.4 µM	0.258 µM	0.278 µM	2.14 µM	0.115 µM	0.565 µM	0.183 µM	0.117 µM	0.27 µM
O=C(Nc1ccc2[nH]c(=S)sc2c1)Nc1ccccc1F	> 100	33.4 µM	64.2 µM	14.6	> 100 µM	> 100	> 100 µM	> 100 µM	> 100 µM	38.4 µM	22.3 µM	4.47 µM	18.4 µM	2.71 µM	40.5 µM	20.4 µM	37.6 µM	51.5 µM	10.3 µM	42.4 µM
CNC(=O)CC1NC(=O)c2csc(n2)-c2ccc(-c3nc(C4=NC(C(=O)N5CCCC5C(N)=O)CO4)cs3)nc2-c2csc(n2)-c2csc(n2)C(C(C)C)NC(=O)CNC(=O)c2csc(n2)C(C(C)C)NC(=O)c2nc1sc2C (configuration not stated)	> 25	> 25 µM	> 25 µM	> 25	5.08 µM and > 25 µM	> 25					> 25 µM	> 25 µM		> 25 µM	> 25 µM	> 25 µM	< 0.001 µM	> 25 µM		
COc1ccc(NC(=O)COCCOCCNC[C@@H]2C(=O)O[C@H]3[C@H]2CC/C(COC(=O)OC/C2=C/CC[C@@]4(C)O[C@H]4[C@H]4OC(=O)[C@@H](CN(C)C)[C@@H]4CC2)=C\CC[C@@]2(C)O[C@@H]32)c(O)c1C(N)=O	14.7	10.4 µM	4.12 µM		> 50 µM	6.14	15.5 µM	> 50 µM	9.12 µM	1.88 µM	5.76 µM	1.71 µM	1.52 µM		16.6 µM	1.44 µM	14.7 µM	2.72 µM	0.888 µM	7.22 µM
COc1cc(Cl)cc(-c2nn(-c3cccc(NC(=O)Nc4cc(C(F)(F)F)cc(C(F)(F)F)c4)c3)cc2-c2ccncc2)c1		6.27 µM	4.77 µM	4.4	4.81 µM	2.74	2.3 µM	13.6 µM	14.6 µM	1.32 µM		0.476 µM	0.73 µM	0.426 µM	0.629 µM	0.383 µM	1.89 µM	0.684 µM	0.302 µM	0.481 µM
